Results reported in paper PMC5450916 (Biochemistry, 2010).
Several values for one entry are separate records, joined by “and”; a condition that tells them apart may be missing. Identical values can stand only once. Like-named read-outs stand apart in the source and are kept apart here.

Experiments:
[1] = biological target: T1, human indoleamine 2,3-dioxygenase (hIDO) (Homo sapiens, UniProt P14902); assay: Steady-state kinetics of hIDO; assay type: biochemical
[2] = biological target: T1, human indoleamine 2,3-dioxygenase (hIDO); assay: Stopped-flow binding kinetics
[3] = biological target: rabbit indoleamine 2,3-dioxygenase (rIDO); conditions: read-out: Kd^eq, cited from earlier work
[4] = biological target: T1, human indoleamine 2,3-dioxygenase (hIDO); assay: Equilibrium ligand/substrate titration by optical absorption; assay type: binding; conditions: ferrous hIDO at 50 μM L-Trp, on the basis of Kd 400 μM
[5] = biological target: T1, human indoleamine 2,3-dioxygenase (hIDO); conditions: L-Trp binding to ferric hIDO; cited from earlier work
TDO (xcTDO) [6] = conditions: cited from earlier work
[7] = tested on: rabbit indoleamine 2,3-dioxygenase (rIDO); conditions: cited from earlier work
TDO (xcTDO) [8] = conditions: read-out: Kd^eq, cited from earlier work
[9] = biological target: T1, human indoleamine 2,3-dioxygenase (hIDO); conditions: cited from earlier work

T1 sequence (P14902 whole entry): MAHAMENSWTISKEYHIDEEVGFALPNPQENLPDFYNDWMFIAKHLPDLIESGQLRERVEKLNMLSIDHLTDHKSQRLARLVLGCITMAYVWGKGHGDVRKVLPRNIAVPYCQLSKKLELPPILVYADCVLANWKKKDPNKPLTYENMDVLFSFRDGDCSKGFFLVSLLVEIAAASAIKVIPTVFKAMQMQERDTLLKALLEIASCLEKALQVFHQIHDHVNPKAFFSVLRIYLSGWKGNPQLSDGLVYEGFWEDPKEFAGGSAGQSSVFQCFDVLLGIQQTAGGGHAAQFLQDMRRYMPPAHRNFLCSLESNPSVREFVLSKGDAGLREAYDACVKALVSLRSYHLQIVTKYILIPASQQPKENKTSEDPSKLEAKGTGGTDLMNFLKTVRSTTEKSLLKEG

N[C@@H](Cc1c[nH]c2ccccc12)C(=O)O [L-Trp, L-Tryptophan]
Km of L-Trp lower than Kd of L-Trp ([1]; Km (15 μM) vs Kd (0.4 mM) of ligand-free ferrous hIDO): ~ 27 fold and 27 fold
Km lower than Kd (L-Trp) ([1]; Km (~15 μM) vs literature Kd (0.53 mM) of ligand-free hIDO): ~ 40 fold
Kd ([2]; Fe^3+ + Trp, calculated from kinetic constants): 1000 µM
Kd ([2]; Fe^3+–CN^− + Trp, calculated from koff/kon): 23 µM
binding of L-Trp to the second binding site ([2]; cyanide-bound ferric hIDO, higher L-Trp concentrations, stopped-flow): too fast to be measured
ΔΔG of L-Trp binding ([2]; effect of prebinding of cyanide, tighter substrate binding): -2.3 kcal/mol
retardation of L-Trp dissociation by prebinding of cyanide ([2]; koff, cyanide-bound vs ligand-free ferric hIDO): 2 fold
facilitation of L-Trp binding by prebinding of cyanide ([2]; kon, cyanide-bound vs ligand-free ferric hIDO): ~ 22 fold and 22 fold
observed rate constant ([2]; ligand-free ferric hIDO with 0.75 mM L-Trp, trace at 403 nm, 20 °C): 10 s⁻¹
Kd ([3]; rIDO Fe^2+ + Trp): 13 µM
Kd ([3]; rIDO Fe^3+ + Trp, ref 16): 5800 µM
Kd ([3]; rIDO Fe^3+ + Trp, ref 35): 30000 µM
Kd ([3]; rIDO Fe^3+–CN^− + Trp, ref 34): 10 to 20 µM
Kd ([3]; rIDO Fe^3+–CN^− + Trp, ref 35): 16 µM
enzyme in the substrate-bound form [4]: ~ 5%
kon, previously published [5]: 1.55e+10 M⁻¹ s⁻¹
Km (TDO (xcTDO) [6]): 114 µM
Km [7]: 12 µM
Kd (TDO (xcTDO) [8]; TDO Fe^2+ + Trp): 4.12 µM
Kd (TDO (xcTDO) [8]; TDO Fe^3+ + Trp): 3800 µM
self-inhibition (substrate inhibition) constant Ksi ([9]; hIDO steady-state turnover): 0.17 mM
Km ([9]; read-out: Km of L-Trp, hIDO steady-state reactions): 15 ± 2 µM
